PubChem BioAssay AID2060614 (Molecular Pharmacology Branch, DTP, NCI, 2025)
Values joined by “and” are separate entries in the source; they are usually repeats but may differ in a detail not shown here. Identical values can stand only once.

Test system: 598228-144-R-J1-PDC complex spheroids, viability
Test: Anticancer human tumor 598228-144-R-J1-PDC patient-derived serous endometrial adenocarcinoma cell line growth inhibition [CLK]
Settings: for viability, T/C: stronger effect = lower value
How it was run: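 Multi-cell-type spheroids combined patient-derived tumor cells with HUVEC endothelial cells and human mesenchymal stem cells. Paired agents were dosed in half-log steps down from about clinical Cmax, or from 10 microM where Cmax was unknown.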

[1] = curve of first compound, second compound 0.0316 µM
[2] = curve of first compound, second compound 0.1 µM
[3] = curve of first compound, second compound 0.316 µM
[4] = curve of first compound, second compound 1 µM
[5] = curve of first compound, second compound 3.16 µM
[6] = curve of first compound, second compound 10 µM
[7] = second compound 0.0316 µM, first compound 0.0316 µM
[8] = second compound 0.0316 µM, first compound 0.1 µM
[9] = second compound 0.0316 µM, first compound 0.316 µM
[10] = second compound 0.0316 µM, first compound 1 µM
[11] = second compound 0.0316 µM, first compound 3.16 µM
[12] = second compound 0.0316 µM, first compound 10 µM
[13] = second compound 0.1 µM, first compound 0.0316 µM
[14] = second compound 0.1 µM, first compound 0.1 µM
[15] = second compound 0.1 µM, first compound 0.316 µM
[16] = second compound 0.1 µM, first compound 1 µM
[17] = second compound 0.1 µM, first compound 3.16 µM
[18] = second compound 0.1 µM, first compound 10 µM
[19] = second compound 0.316 µM, first compound 0.0316 µM
[20] = second compound 0.316 µM, first compound 0.1 µM
[21] = second compound 0.316 µM, first compound 0.316 µM
[22] = second compound 0.316 µM, first compound 1 µM
[23] = second compound 0.316 µM, first compound 3.16 µM
[24] = second compound 0.316 µM, first compound 10 µM
[25] = second compound 1 µM, first compound 0.0316 µM
[26] = second compound 1 µM, first compound 0.1 µM
[27] = second compound 1 µM, first compound 0.316 µM
[28] = second compound 1 µM, first compound 1 µM
[29] = second compound 1 µM, first compound 3.16 µM
[30] = second compound 1 µM, first compound 10 µM
[31] = second compound 3.16 µM, first compound 0.0316 µM
[32] = second compound 3.16 µM, first compound 0.1 µM
[33] = second compound 3.16 µM, first compound 0.316 µM
[34] = second compound 3.16 µM, first compound 1 µM
[35] = second compound 3.16 µM, first compound 3.16 µM
[36] = second compound 3.16 µM, first compound 10 µM
[37] = second compound 10 µM, first compound 0.0316 µM
[38] = second compound 10 µM, first compound 0.1 µM
[39] = second compound 10 µM, first compound 0.316 µM
[40] = second compound 10 µM, first compound 1 µM
[41] = second compound 10 µM, first compound 3.16 µM
[42] = second compound 10 µM, first compound 10 µM
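Also: spheroids exposed to compounds for seven days before readout.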
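For viability, T/C in this document: 100% = DMSO vehicle control wells.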

NC(=O)C(=Cn1cnc(-c2cc(C(F)(F)F)cc(C(F)(F)F)c2)n1)c1cncnc1 + CN1CCN(c2cc(C(=O)Nc3cc4cc(-c5cnn(C)c5)ccc4cn3)ccn2)CC1
IC50 [1]: 0.236 µM
IC50 [2]: 0.344 µM
IC50 [3]: < 0.00949 µM
IC50 [4]: < 0.00949 µM
IC50 [5]: < 0.00949 µM
IC50 [6]: < 0.00949 µM
viability, T/C (second compound 0.0316 µM, first compound 0.00949 µM): 108%
viability, T/C (second compound 0.0316 µM, first compound 0.03 µM): 109%
viability, T/C (second compound 0.0316 µM, first compound 0.0949 µM): 72.9%
viability, T/C (second compound 0.0316 µM, first compound 0.3 µM): 47.6%
viability, T/C (second compound 0.0316 µM, first compound 0.949 µM): 29.3%
viability, T/C (second compound 0.0316 µM, first compound 3 µM): 37.8%
viability, T/C (second compound 0.1 µM, first compound 0.00949 µM): 114%
viability, T/C (second compound 0.1 µM, first compound 0.03 µM): 87.4%
viability, T/C (second compound 0.1 µM, first compound 0.0949 µM): 76.9%
viability, T/C (second compound 0.1 µM, first compound 0.3 µM): 47.7%
viability, T/C (second compound 0.1 µM, first compound 0.949 µM): 38.9%
viability, T/C (second compound 0.1 µM, first compound 3 µM): 9.13%
viability, T/C (second compound 0.316 µM, first compound 0.00949 µM): 12.9%
viability, T/C (second compound 0.316 µM, first compound 0.03 µM): 6.08%
viability, T/C (second compound 0.316 µM, first compound 0.0949 µM): 0.74%
viability, T/C (second compound 0.316 µM, first compound 0.3 µM): 0.62%
viability, T/C (second compound 0.316 µM, first compound 0.949 µM): 2.45%
viability, T/C (second compound 0.316 µM, first compound 3 µM): 1.39%
viability, T/C (second compound 1 µM, first compound 0.00949 µM): 0.59%
viability, T/C (second compound 1 µM, first compound 0.03 µM): 0.85%
viability, T/C (second compound 1 µM, first compound 0.0949 µM): 1.1%
viability, T/C (second compound 1 µM, first compound 0.3 µM): 1.03%
viability, T/C (second compound 1 µM, first compound 0.949 µM): 0.66%
viability, T/C (second compound 1 µM, first compound 3 µM): 0.41%
viability, T/C (second compound 3.16 µM, first compound 0.00949 µM): 1.32%
viability, T/C (second compound 3.16 µM, first compound 0.03 µM): 2.21%
viability, T/C (second compound 3.16 µM, first compound 0.0949 µM): 2.27%
viability, T/C (second compound 3.16 µM, first compound 0.3 µM): 1.81%
viability, T/C (second compound 3.16 µM, first compound 0.949 µM): 4.57%
viability, T/C (second compound 3.16 µM, first compound 3 µM): 0.46%
viability, T/C (second compound 10 µM, first compound 0.00949 µM): 0.86%
viability, T/C (second compound 10 µM, first compound 0.03 µM): 0.87%
viability, T/C (second compound 10 µM, first compound 0.0949 µM): 1.32%
viability, T/C (second compound 10 µM, first compound 0.3 µM): 0.79%
viability, T/C (second compound 10 µM, first compound 0.949 µM): 1.73%
viability, T/C (second compound 10 µM, first compound 3 µM): 0.39%

COc1ccc([C@@H](O)c2cc(-c3ncnc4cc(N5CCOCC5)ccc34)c(F)cc2Cl)nn1 + CNC(=O)c1ccc(Nc2nc(OC3CCCC3)c3c(-c4ccc5nc(C)oc5c4)c[nH]c3n2)c(OC)c1
IC50 [1]: 6.49 µM
IC50 [2]: 5.47 µM
IC50 [3]: 4.05 µM
IC50 [4]: 3.67 µM
IC50 [5]: 3.71 µM
IC50 [6]: 2.27 µM
viability, T/C [7]: 120%
viability, T/C [8]: 109%
viability, T/C [9]: 99%
viability, T/C [10]: 94.9%
viability, T/C [11]: 61.8%
viability, T/C [12]: 41.3%
viability, T/C [13]: 116%
viability, T/C [14]: 109%
viability, T/C [15]: 87.7%
viability, T/C [16]: 90.1%
viability, T/C [17]: 67.5%
viability, T/C [18]: 32.1%
viability, T/C [19]: 99.4%
viability, T/C [20]: 102%
viability, T/C [21]: 75.5%
viability, T/C [22]: 84.6%
viability, T/C [23]: 51.9%
viability, T/C [24]: 29.7%
viability, T/C [25]: 95.2%
viability, T/C [26]: 102%
viability, T/C [27]: 77%
viability, T/C [28]: 78.3%
viability, T/C [29]: 52.5%
viability, T/C [30]: 25.3%
viability, T/C [31]: 94.3%
viability, T/C [32]: 74.7%
viability, T/C [33]: 90%
viability, T/C [34]: 75.1%
viability, T/C [35]: 53.9%
viability, T/C [36]: 27.4%
viability, T/C [37]: 88.9%
viability, T/C [38]: 90.9%
viability, T/C [39]: 81.7%
viability, T/C [40]: 77.5%
viability, T/C [41]: 38.9%
viability, T/C [42]: 28.9%

CC(Nc1ccc2c(c1)OCCn1cc(N3C(=O)OCC3C(F)F)nc1-2)C(N)=O (stereo not drawn)
viability, T/C (compound 0.0316 µM): 82.3% and 77.2%
viability, T/C (compound 0.1 µM): 67.8% and 63.2%
viability, T/C (compound 0.316 µM): 48% and 46.3%
viability, T/C (compound 1 µM): 46.3% and 36.9%
viability, T/C (compound 3.16 µM): 33.6% and 29.7%
viability, T/C (compound 10 µM): 28.9% and 24%
IC50 (curve of compound): 0.418 µM and 0.264 µM

C#Cc1c(F)ccc2cc(O)cc(-c3ncc4c(N5CC6CCC(C5)N6)nc(OCC56CCCN5CC(F)C6)nc4c3F)c12 (stereo not drawn) + CNC(=O)c1ccc(Nc2nc(OC3CCCC3)c3c(-c4ccc5nc(C)oc5c4)c[nH]c3n2)c(OC)c1
IC50 [1]: > 10 µM
IC50 [2]: > 10 µM
IC50 [3]: > 10 µM
IC50 [4]: > 10 µM
IC50 [5]: > 10 µM
IC50 [6]: > 10 µM
viability, T/C [7]: 111%
viability, T/C [8]: 112%
viability, T/C [9]: 117%
viability, T/C [10]: 125%
viability, T/C [11]: 99.5%
viability, T/C [12]: 94.1%
viability, T/C [13]: 99.7%
viability, T/C [14]: 104%
viability, T/C [15]: 109%
viability, T/C [16]: 102%
viability, T/C [17]: 98.1%
viability, T/C [18]: 88.3%
viability, T/C [19]: 120%
viability, T/C [20]: 102%
viability, T/C [21]: 132%
viability, T/C [22]: 100%
viability, T/C [23]: 110%
viability, T/C [24]: 90.7%
viability, T/C [25]: 101%
viability, T/C [26]: 90.3%
viability, T/C [27]: 98.3%
viability, T/C [28]: 98.2%
viability, T/C [29]: 104%
viability, T/C [30]: 83.3%
viability, T/C [31]: 98.5%
viability, T/C [32]: 92.5%
viability, T/C [33]: 81.8%
viability, T/C [34]: 83.6%
viability, T/C [35]: 95.2%
viability, T/C [36]: 88.5%
viability, T/C [37]: 83.3%
viability, T/C [38]: 80.7%
viability, T/C [39]: 90.8%
viability, T/C [40]: 81.9%
viability, T/C [41]: 102%
viability, T/C [42]: 78.8%
